# Assay results from ChEMBL document CHEMBL1147009, “Synthesis and SAR studies of diarylpyrrole anticoccidial agents” (Bioorg Med Chem Lett, 2006).
# What was measured:
# [1] = molecular target: cGMP-dependent protein kinase (Eimeria tenella, UniProt Q8MMZ8); assay: Inhibition of Eimeria tenella PKG
# [2] = tested on: Eimeria acervulina; assay: Anticoccidial activity against Eimeria acervulina at 100 ppm; type: functional
# [3] = tested on: Eimeria tenella; assay: Anticoccidial activity against Eimeria tenella at 100 ppm; type: functional
# Chain of cGMP-dependent protein kinase (Q8MMZ8 whole entry): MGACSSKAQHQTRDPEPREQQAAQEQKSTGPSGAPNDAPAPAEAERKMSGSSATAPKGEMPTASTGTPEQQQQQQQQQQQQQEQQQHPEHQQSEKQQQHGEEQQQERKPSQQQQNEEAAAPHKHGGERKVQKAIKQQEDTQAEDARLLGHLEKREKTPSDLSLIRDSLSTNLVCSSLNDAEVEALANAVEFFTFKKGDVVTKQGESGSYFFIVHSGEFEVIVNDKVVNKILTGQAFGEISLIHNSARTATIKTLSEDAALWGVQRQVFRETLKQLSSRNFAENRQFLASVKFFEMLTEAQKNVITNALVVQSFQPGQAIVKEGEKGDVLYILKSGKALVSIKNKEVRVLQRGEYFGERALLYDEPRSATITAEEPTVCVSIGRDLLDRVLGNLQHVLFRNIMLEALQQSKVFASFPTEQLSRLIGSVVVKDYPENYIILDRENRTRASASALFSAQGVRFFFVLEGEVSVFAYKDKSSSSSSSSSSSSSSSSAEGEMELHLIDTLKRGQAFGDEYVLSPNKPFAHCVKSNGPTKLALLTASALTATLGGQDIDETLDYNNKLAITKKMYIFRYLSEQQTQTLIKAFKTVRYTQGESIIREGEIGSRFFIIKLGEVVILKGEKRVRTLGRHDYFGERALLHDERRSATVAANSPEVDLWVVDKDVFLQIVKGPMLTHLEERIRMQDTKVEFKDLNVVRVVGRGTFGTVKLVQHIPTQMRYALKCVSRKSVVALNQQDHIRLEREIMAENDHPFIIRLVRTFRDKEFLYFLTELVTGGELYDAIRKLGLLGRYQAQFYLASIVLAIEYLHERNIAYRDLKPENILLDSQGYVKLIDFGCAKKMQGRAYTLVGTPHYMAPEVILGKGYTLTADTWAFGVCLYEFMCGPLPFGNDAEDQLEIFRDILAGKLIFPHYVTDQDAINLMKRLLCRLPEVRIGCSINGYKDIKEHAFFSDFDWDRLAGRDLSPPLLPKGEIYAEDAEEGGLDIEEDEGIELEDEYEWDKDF
SMILES,IC50 [1],Activity [2],Activity [3]
C[C@H](O)CN1CCCC1c1cc(-c2ccncc2)c(-c2ccc(F)cc2)[nH]1 (some centres undefined),2.8 nM,<50%,80%
O=C(OCc1ccccc1)N1CCCC1c1cc(-c2ccncc2)c(-c2ccc(F)cc2)[nH]1 (centres undefined),2.7 nM,<50%,<50%
CN(C)C(=O)Cc1cc(-c2ccncc2)c(-c2ccc(F)cc2)[nH]1,4.1 nM,<50%,<50%
CCOC(=O)c1cc(-c2ccncc2)c(-c2ccc(F)cc2)[nH]1,430 nM,<50%,<50%
CN1CCCCC1c1cc(-c2ccncc2)c(-c2ccc(F)cc2)[nH]1 (centres undefined),2.7 nM,<50%,<50%
Fc1ccc(-c2[nH]c(CN3CCCCC3)cc2-c2ccncc2)cc1,3.7 nM,<50%,<50%
CCN(C)CCCc1cc(-c2ccncc2)c(-c2ccc(F)cc2)[nH]1,4.1 nM,<50%,<50%
Fc1ccc(-c2[nH]c(C3CCCN3)cc2-c2ccncc2)cc1 (centres undefined),3.1 nM,<50%,50%
OCC1CCN(Cc2cc(-c3ccncc3)c(-c3ccc(F)cc3)[nH]2)CC1,13 nM,<50%,<50%
Fc1ccc(-c2[nH]c(CN3CCOCC3)cc2-c2ccncc2)cc1,7.6 nM,<50%,<50%
O=C(O)Cc1cc(-c2ccncc2)c(-c2ccc(F)cc2)[nH]1,> 1000 nM,<50%,<50%
C[C@@H](O)CN1CCCC1c1cc(-c2ccncc2)c(-c2ccc(F)cc2)[nH]1 (some centres undefined),3.3 nM,<50%,<50%

# Molecules with a lower IC50 [1], results first:
IC50 [1],SMILES,Activity [2],Activity [3]
2.5 nM,CN(C)CCc1cc(-c2ccncc2)c(-c2ccc(F)cc2)[nH]1,50%,50%
2.3 nM,CNC(=O)N1CCCC1c1cc(-c2ccncc2)c(-c2ccc(F)cc2)[nH]1 (centres undefined),<50%,<50%
2.1 nM,OCCN1CCCC1c1cc(-c2ccncc2)c(-c2ccc(F)cc2)[nH]1 (centres undefined),<50%,<50%
1.5 nM,O=S(=O)(c1ccc(F)cc1)N1CCCC1c1cc(-c2ccncc2)c(-c2ccc(F)cc2)[nH]1 (centres undefined),<50%,<50%
1.3 nM,Fc1ccc(-c2[nH]c(CN3CCC3)cc2-c2ccncc2)cc1,<50%,<50%
1 nM,CN1CCCC1c1cc(-c2ccncc2)c(-c2ccc(F)cc2)[nH]1 (centres undefined),80%,<50%
0.71 nM,CC(C)C(c1cc(-c2ccncc2)c(-c2ccc(F)cc2)[nH]1)N(C)C (centres undefined),80%,50%
0.35 nM,CN(C)Cc1cc(-c2ccncc2)c(-c2ccc(F)cc2)[nH]1,< 50%,
